Assay results as given in patent US12486253B2, “Therapeutics for the degradation of mutant BRAF” (C4 THERAPEUTICS, INC., priority 2021, dated 2025).
Read-outs that look alike come from different tables or passages of the source.

Molecular target: BRAF V600E (Homo sapiens, UniProt P15056, V600E)
Assay: HiBiT cellular BRAF^V600E degradation assay
Type: cell-based
Settings: for DC50: concentration at which 50% of total cellular BRAF^V600E is degraded; for Emax: read-out: HiBit 24 h Emax
[1] = A375.10 cells, 24 h, residual protein remaining in the cell

BRAF V600E, sequence (P15056 whole entry V600E): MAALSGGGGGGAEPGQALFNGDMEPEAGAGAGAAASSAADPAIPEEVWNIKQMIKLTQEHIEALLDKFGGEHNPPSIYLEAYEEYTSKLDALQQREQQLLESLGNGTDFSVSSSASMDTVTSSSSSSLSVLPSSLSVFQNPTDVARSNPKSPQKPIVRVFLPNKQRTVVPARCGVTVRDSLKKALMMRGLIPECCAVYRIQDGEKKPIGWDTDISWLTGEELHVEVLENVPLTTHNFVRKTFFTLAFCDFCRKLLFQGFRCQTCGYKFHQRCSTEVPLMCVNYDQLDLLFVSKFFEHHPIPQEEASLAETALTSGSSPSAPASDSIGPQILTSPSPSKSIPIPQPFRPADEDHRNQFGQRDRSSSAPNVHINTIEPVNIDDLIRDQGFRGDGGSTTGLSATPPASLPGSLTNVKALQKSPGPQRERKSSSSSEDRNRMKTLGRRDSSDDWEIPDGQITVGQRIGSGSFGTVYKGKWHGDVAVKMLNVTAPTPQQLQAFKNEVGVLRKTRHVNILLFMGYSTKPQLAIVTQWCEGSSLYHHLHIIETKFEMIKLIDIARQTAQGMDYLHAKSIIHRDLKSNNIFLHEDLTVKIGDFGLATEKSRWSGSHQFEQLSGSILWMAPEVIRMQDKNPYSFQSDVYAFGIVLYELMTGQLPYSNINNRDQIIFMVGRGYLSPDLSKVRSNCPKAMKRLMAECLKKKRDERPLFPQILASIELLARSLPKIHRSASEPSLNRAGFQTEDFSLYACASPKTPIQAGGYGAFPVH

DC50 (A375.10 cells, 24 h) [nM] | Emax [1] [%] | Compound | Emax [%]
16.2 | 19.8 | CCN(C)S(=O)(=O)Nc1ccc(F)c(Oc2ccc3ncn([C@H]4COC5(CCN(C(=O)CC6(O)CCN(c7cc8c(cc7F)c(N7CCC(=O)NC7=O)nn8C)CC6)CC5)C4)c(=O)c3c2N)c1C#N [Example 182, (3R)-3-[5-amino-6-[2-cyano-3-[[ethyl(methyl)sulfamoyl]amino]-6-fluorophenoxy]-4-oxoquinazolin-3-yl]-8-[2-[1-[3-(2,4-dioxo-1,3-diazinan-1-yl)-5-fluoro-1-methylindazol-6-yl]-4-hydroxypiperidin-4-yl]acetyl]-1-oxa-8-azaspiro[4.5]decane] | –
16.3 | 25.1 | CCN(C)S(=O)(=O)Nc1ccc(F)c(Oc2ccc3ncn([C@H]4COC5(CCN(C(=O)CC6(O)CCN(c7cc8c(cc7F)c(N7CCC(=O)NC7=O)nn8C)CC6)CC5)C4)c(=O)c3c2O)c1C#N [Example 186, (3R)-3-[6-[2-cyano-3-[[ethyl(methyl)sulfamoyl]amino]-6-fluorophenoxy]-5-hydroxy-4-oxoquinazolin-3-yl]-8-[2-[1-[3-(2,4-dioxo-1,3-diazinan-1-yl)-5-fluoro-1-methylindazol-6-yl]-4-hydroxypiperidin-4-yl]acetyl]-1-oxa-8-azaspiro[4.5]decane] | –
38.8 | 24.1 | Cn1nc(N2CCC(=O)NC2=O)c2cc(F)c(N3CCC(O)(CC(=O)N4CCC5(CC4)C[C@@H](n4cnc6ccc(Oc7c(F)ccc(NS(=O)(=O)N8CCCCC8)c7C#N)cc6c4=O)CO5)CC3)cc21 [Example 187, N-[2-cyano-3-[3-[(3R)-8-[2-[1-[3-(2,4-dioxo-1,3-diazinan-1-yl)-5-fluoro-1-methylindazol-6-yl]-4-hydroxypiperidin-4-yl]acetyl]-1-oxa-8-azaspiro[4.5]decan-3-yl]-4-oxoquinazolin-6-yl]oxy-4-fluorophenyl]piperidine-1-sulfonamide] | –
23.5 | 24.5 | CC(C)S(=O)(=O)Nc1ccc(F)c(Oc2ccc3ncn([C@H]4COC5(CCN(C(=O)CC6(O)CCN(c7cc8c(cc7F)c(N7CCC(=O)NC7=O)nn8C)CC6)CC5)C4)c(=O)c3c2)c1C#N [Example 189, N-[2-cyano-3-[3-[(3R)-8-[2-[1-[3-(2,4-dioxo-1,3-diazinan-1-yl)-5-fluoro-1-methylindazol-6-yl]-4-hydroxypiperidin-4-yl]acetyl]-1-oxa-8-azaspiro[4.5]decan-3-yl]-4-oxoquinazolin-6-yl]oxy-4-fluorophenyl]propane-2-sulfonamide] | –

Compound | DC50 (A375.10 cells, 24 h) [nM] | Emax [1] [%] | Emax [%]
CCN(C)S(=O)(=O)Nc1ccc(F)c(Oc2ccc3ncn([C@H]4COC5(CCN(C(=O)CC6CCN(c7cc8c(cc7F)c(N7CCC(=O)NC7=O)nn8C)CC6)CC5)C4)c(=O)c3c2)c1C#N [Example 180, (3R)-3-[6-[2-cyano-3-[[ethyl(methyl)sulfamoyl]amino]-6-fluorophenoxy]-4-oxoquinazolin-3-yl]-8-[2-[1-[3-(2,4-dioxo-1,3-diazinan-1-yl)-5-fluoro-1-methylindazol-6-yl]piperidin-4-yl]acetyl]-1-oxa-8-azaspiro[4.5]decane] | 9.62 | – | 20.6
Cn1nc(N2CCC(=O)NC2=O)c2cc(F)c(N3CCC(O)(CC(=O)N4CCC5(CC4)C[C@@H](n4cnc6ccc(Oc7c(F)ccc(NS(=O)(=O)C8CCCCC8)c7C#N)cc6c4=O)CO5)CC3)cc21 [Example 188, N-[2-cyano-3-[3-[(3R)-8-[2-[1-[3-(2,4-dioxo-1,3-diazinan-1-yl)-5-fluoro-1-methylindazol-6-yl]-4-hydroxypiperidin-4-yl]acetyl]-1-oxa-8-azaspiro[4.5]decan-3-yl]-4-oxoquinazolin-6-yl]oxy-4-fluorophenyl]cyclohexanesulfonamide] | 40.6 | – | 27.3
